One assay concerns mouse. Nature of the assay: Anxiolytic activity in the mouse, Black and White Box test. In kind it is in vivo. The settings on record: for TOTAL MOV.: five minutes. As to the method: In order to confirm the hypothesis that the potent activity of some of the compounds of the invention against central CCK-B may be correlated with a possible anxiolytic activity, this potential activity was evaluated in the mouse with the use of the "Black and White Box test". This experimental model, which was carried out according to Costall et al. [Pharm. Biochem. Behav. 32 (1989), 777-785] used a box with dimensions of 45×21×21 (h) cm. divided into two compartments which communicated with each other by means of a 13×5 cm hole. The smaller compartment (1/3 of the total area) had black walls, whereas the larger had transparent walls and was illuminated by a lamp which was placed 20 cm above the box and supplied light at 20 W. Under the floor was an activity meter which registered the movements performed by the animal in the individual compartments. The experiment was started by placing the animal in the centre of the illuminated box; as well at its movements, the time which the animal spent in the dark and in the light and the number of times it moved between the 2 compartments were recorded for five minutes. In general, a control animal tended preferably to stay in the dark compartment where it felt better protected from an unusual enviromental situation which put it in a state of anxiety. In this experimental model ( see the reference cited above), a compound having anxiolytic activity decreased the % of movements into the dark in comparison with the total movements, increased the movements between the two light-dark compartments, and increased the % of the total time time spent in the light. The results obtained are given in Table 5 below in which the activities obtained with the compound 1 (the rectus series ) and its enantiomer 2 (sinister) tested in comparison with diazepam and the CCK-B antagonist L365-260.

Another assay concerns guinea-pig ureters. Description: Antispastic activity in vitro: spontaneous motility of guinea-pig ureters. The settings on record: for IC50: Cavia porcellus. An excerpt:
The isotonic contractions were detected by means of a force transducer and recorded. […] A given concentration of the product under test was then introduced into the bath and left in contact with the prepared specimen for five minutes, after which the ureter was washed until its own spontaneous activity was re-established.

For assay [1], the target named is T1, central CCK-B receptors (guinea pig cortical membrane) (Cavia porcellus, UniProt H0VZC5).
T1 construct: Cerebral cortices of white male guinea pigs were therefore used; from tissue; host or cells: guinea pig cerebral cortex membranes
T1 sequence (H0VZC5 1-426): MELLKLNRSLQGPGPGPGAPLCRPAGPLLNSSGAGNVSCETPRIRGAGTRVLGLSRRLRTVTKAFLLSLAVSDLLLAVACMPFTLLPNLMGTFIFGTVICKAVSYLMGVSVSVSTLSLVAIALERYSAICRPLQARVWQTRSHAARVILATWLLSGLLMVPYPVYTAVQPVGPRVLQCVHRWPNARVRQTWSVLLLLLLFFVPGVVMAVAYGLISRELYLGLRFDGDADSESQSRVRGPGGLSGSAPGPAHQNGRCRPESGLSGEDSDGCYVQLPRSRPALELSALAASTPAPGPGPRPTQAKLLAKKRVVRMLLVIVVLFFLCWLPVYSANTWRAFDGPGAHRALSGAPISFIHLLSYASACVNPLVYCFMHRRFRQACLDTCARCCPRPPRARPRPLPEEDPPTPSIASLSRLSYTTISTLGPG
Description: Inhibition of binding of (3-H)[N-methyl-N-leucine]CCK-8 to guinea pig cortical membranes (anti-CCK-B). To be noted: IC50, inhibition of binding of (3-H)[N-methyl-N-leucine]CCK-8 to the guinea pig cortical membrane, 150 minutes at 25° C. The method, then:
Cerebral cortices of white male guinea pigs were therefore used, according to the method mentioned above, so as to obtain a membrane content/ml corresponding to about 300 mcg of proteins/mi. The membranes were incubated together with the radioactive tracer and the compounds under test for 150 minutes at 25° C. After the supernatant liquid had been discarded, the radioactivity associated with the pellet was determined with a liquid scintillator.

[2] abbreviates: force of the contractions, five minutes contact, 37° C., read-out: IC50 (force), inhibition of the spontaneous motility of guinea-pig ureters in vitro.
Setting [3] is: frequency of the contractions, five minutes contact, 37° C., read-out: IC50 (frequency), inhibition of the spontaneous motility of guinea-pig ureters in vitro.

Converted amounts (≈) assume the structure as drawn. Read-outs that look alike come from different tables or passages of the source.

On to `Cc1cccc(NC(=O)N[C@@H]2N=C(c3ccccc3)c3ccccc3N(C)C2=O)c1` [Compound L-365-260, reference compound], for which, in the assay on mouse (0.01 mg/kg IP), the “LIGHT TIME (%) TOTAL TIME” value amounted to 27.0%, the “LIGHT TIME (%) TOTAL TIME: % EFF.VS CONTROL” value was 0%, the “LIGHT-DARK MOVEMENTS” value is reported as 14.2 and the “LIGHT-DARK MOVEMENTS: % EFF. VS CONTROL” value was -12%. In addition, in the assay with mouse (0.01 mg/kg IP), the “MOV. DARK (%) TOTAL MOV.” value stood at 57%, the “MOV. DARK (%) TOTAL MOV.: % EFF. VS CONTROL” value is given as 12% and the “TOTAL MOV.” value is 417. In the assay with mouse (0.1 mg/kg IP), the “LIGHT TIME (%) TOTAL TIME” value came out at 31.8%, the “LIGHT TIME (%) TOTAL TIME: % EFF.VS CONTROL” value was found to be 18%, the “LIGHT-DARK MOVEMENTS” value is recorded as 13.3 and the “LIGHT-DARK MOVEMENTS: % EFF. VS CONTROL” value is on record as -18%. In addition, in the assay on mouse (0.1 mg/kg IP), the “MOV. DARK (%) TOTAL MOV.” value is on record as 54%, the “MOV. DARK (%) TOTAL MOV.: % EFF. VS CONTROL” value was 18% and the “TOTAL MOV.” value was determined as 446. Besides, the “anxiolytic activity in the Black and White Box test (in words)” value in the assay on mouse (IP) was “active at a dose of 0.1 mg/kg but only for the parameter which relates to the increase in the time spent in the light”.
On to `CCCCN(CCCC)C(=O)C(CCC(=O)NCCCN(C)C)NC(=O)c1ccc(C)c(C)c1` (centres unmarked) [Compound 27], for which the IC50 in the assay on guinea-pig ureters (setting [2]) turned out to be 33 µg/mL (≈ 69.5 µM).
On to `CCCCCN(CCCCC)C(=O)C(CCC(=O)NCCN1CCCCC1)NC(=O)c1ccc(C)c(C)c1` (centres unmarked) [Compound 55], for which the IC50 was 11 µg/mL (≈ 20.8 µM) in the assay on guinea-pig ureters (setting [2]), 18 µg/mL (≈ 34 µM) with guinea-pig ureters (setting [3]) and greater than 100 µM in assay [1].
Regarding `CCCCN(CCCC)C(=O)C(CCC(=O)NCC1CCCN1CC)NC(=O)c1ccc(C)c(C)c1` (centres unmarked) [Compound 31], in the assay with guinea-pig ureters (setting [2]), the IC50 turned out to be 23 µg/mL (≈ 45.9 µM).
On the same count and under the same terms, under `CCCCCN(CCCOC)C(=O)C(CCC(=O)NCCN1CCOCC1)NC(=O)c1ccc(C)c(C)c1` (centres unmarked) [Compound 64] stands 59 µg/mL (≈ 111 µM).
As for `CCCCCN(CCCCC)C(=O)C(CCC(=O)NCCN1CCOCC1)NC(=O)c1ccccc1` (centres unmarked) [Compound 32], the IC50 in the assay on guinea-pig ureters (setting [3]) was determined as 22 µg/mL (≈ 43.8 µM).
Consider `CCCCCN(CCCCC)C(=O)[C@H](CCC(=O)NCCN1CCOCC1)NC(=O)c1ccc(C)c(C)c1` [Compound 46], for which, in the assay with guinea-pig ureters, the “activity on guinea-pig ureters (in words)” value was “extremely active”. Besides, the results for the 50% inhibitory concentration (IC50) with guinea-pig ureters (setting [2]) and in the assay with guinea-pig ureters (setting [3]) were 1.6 µg/mL (≈ 3.01 µM) and 1.5 µg/mL (≈ 2.83 µM), respectively. Also, the “activity relative to Verapamil” value in the assay with guinea-pig ureters (guinea-pig ureters) is “about twice”. The “times more active than Papaverine and Flavexate” value in the assay with guinea-pig ureters (guinea-pig ureters) is listed as “about 20 times”.
Take `CCCCN(CCCC)C(=O)C(CCC(=O)NCCN(C)C)NC(=O)c1ccc(C)c(C)c1` (centres unmarked) [Compound 25]: in the assay on guinea-pig ureters (setting [2]), the IC50 was 36 µg/mL (≈ 78.1 µM).
Consider `CCCCCN(CCCCC)C(=O)C(CCC(=O)NCCN1CCOCC1)NC(=O)c1ccc(C#N)cc1` (centres unmarked) [Compound 34], for which the 50% inhibitory concentration (IC50) in the assay on guinea-pig ureters (setting [2]) and with guinea-pig ureters (setting [3]) was 12 µg/mL (≈ 22.7 µM) each time.
With `CCCCN(CCCC)C(=O)C(CCC(=O)NCCN1CCOCC1)NC(=O)c1ccc(C)c(C)c1` (centres unmarked) [Compound 28], the IC50 came to 18 µg/mL (≈ 35.8 µM) in the assay with guinea-pig ureters (setting [2]) and 43 µg/mL (≈ 85.5 µM) with guinea-pig ureters (setting [3]).
Take `COc1ccc(CCN(C)CCCC(C#N)(c2ccc(OC)c(OC)c2)C(C)C)cc1OC` (centres unmarked) [Verapamil, reference compound]: the IC50 came to 3 µg/mL (≈ 6.6 µM) in the assay on guinea-pig ureters (read-out: IC50 (force), inhibition of the spontaneous motility of guinea-pig ureters in vitro) and 2.2 µg/mL (≈ 4.84 µM) in the assay on guinea-pig ureters (read-out: IC50 (frequency), inhibition of the spontaneous motility of guinea-pig ureters in vitro).
Consider `CCCCCN(CCCCC)C(=O)C(CCC(=O)NCCCN1CCN(Cc2ccccc2)CC1)NC(=O)c1ccc(C)c(C)c1` (centres unmarked) [Compound 51], for which the IC50 in the assay with guinea-pig ureters (setting [2]) and with guinea-pig ureters (setting [3]) was 100 µg/mL (≈ 158 µM) throughout.
For `Cc1c(-c2ccccc2)oc2c(C(=O)OCCN3CCCCC3)cccc2c1=O` [Flavoxate, reference compound], the IC50 in the assay on guinea-pig ureters (setting [2]) came out at 29 µg/mL (≈ 74.1 µM).
Turning to `CCCCCN(CCCCC)C(=O)C(CCC(=O)NCCN1CCOCC1)NC(=O)c1ccc(C)cc1` (centres unmarked) [Compound 33], the IC50 worked out at 18 µg/mL (≈ 34.8 µM) in the assay on guinea-pig ureters (setting [2]) and 16 µg/mL (≈ 31 µM) in the assay on guinea-pig ureters (setting [3]).
Regarding `CN(C)CCNC(=O)CC[C@@H](NC(=O)c1cc(Cl)cc(Cl)c1)C(=O)N1CCC2(CCCC2)CC1` [Compound 4], the results for the concentration for half-maximal inhibition (IC50) (in the assay with guinea-pig ureters (setting [3]); in assay [1]) were 121 µg/mL (≈ 237 µM) and 12.5 µM, respectively.

As a reminder, the IC50 is the concentration that inhibits the measured activity by half.

Values taken from US5587479A, “Basic derivatives of glutamic acid and aspartic acid as gastrin or cholecystokinin antagonists” (priority 1992, dated 1996).
